In general, IC50 refers to the concentration at which inhibition is half-maximal. For orientation: EC50 means the concentration that produces a half-maximal response.

Here are results for 28 compounds from US11584747B2, “Substituted pyridopyrimidinonyl compounds useful as T cell activators” (BRISTOL-MYERS SQUIBB COMPANY, priority 2019, dated 2023).

Molecules are shown by their SMILES. Where two headings read alike, the source gives them in different places.

In one experiment the target is human DGKα (Homo sapiens (Human), UniProt P23743). Description: DGKα LIPGLO assay (extruded liposome substrate, ADP-Glo luminescence). It is filed as biochemical. In general terms: ADP-Glo first removes unused ATP, then detects ADP through luciferase.
Sequence of human DGKα (P23743 whole entry, looked up): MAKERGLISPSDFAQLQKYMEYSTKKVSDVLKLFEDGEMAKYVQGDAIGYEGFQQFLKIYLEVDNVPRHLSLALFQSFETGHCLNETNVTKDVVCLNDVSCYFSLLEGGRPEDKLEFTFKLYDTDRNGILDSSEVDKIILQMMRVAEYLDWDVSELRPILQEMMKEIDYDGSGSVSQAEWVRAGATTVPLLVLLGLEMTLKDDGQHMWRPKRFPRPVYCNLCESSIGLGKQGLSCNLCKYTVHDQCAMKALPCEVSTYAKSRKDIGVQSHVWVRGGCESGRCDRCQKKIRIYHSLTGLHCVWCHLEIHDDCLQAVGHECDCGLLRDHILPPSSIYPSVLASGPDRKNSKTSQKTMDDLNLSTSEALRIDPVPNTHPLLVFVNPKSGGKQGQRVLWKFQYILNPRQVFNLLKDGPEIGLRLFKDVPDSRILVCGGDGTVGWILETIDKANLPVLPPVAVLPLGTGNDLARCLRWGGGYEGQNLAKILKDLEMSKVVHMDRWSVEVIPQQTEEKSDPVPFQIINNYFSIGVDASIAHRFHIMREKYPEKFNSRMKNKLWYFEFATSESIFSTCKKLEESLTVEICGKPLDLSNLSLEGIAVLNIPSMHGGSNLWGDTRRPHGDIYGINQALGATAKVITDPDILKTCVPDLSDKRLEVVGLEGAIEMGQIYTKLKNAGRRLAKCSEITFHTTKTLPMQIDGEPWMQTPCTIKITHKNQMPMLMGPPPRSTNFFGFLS
A further experiment concerns the target human DGKζ (Homo sapiens (Human), UniProt Q13574). Description: DGKζ LIPGLO assay (extruded liposome substrate, ADP-Glo luminescence). It is filed as biochemical.
For experiment [1], the system named is human venous whole blood (IFN-γ). As to the kind of experiment: Human whole blood IFN-γ assay. Format: cell-based. The method, then:
Human venous whole blood (22.5 μL per well), obtained from healthy donors, was pre-treated with compounds for one hour at 37° C. in a humidified 95% air/5% CO2 incubator. The blood was stimulated with 2.5 μL anti-human CD3 and anti-CD28 mAb at a final concentration of 1 μg/mL each for 24 hours at 37° C. IFN-γ in the supernatants was measured using AlphLISA kit (Cat #AL217).

Where [2] appears, read: liposome assay, read-out: DGK alpha LIPGLO IC50.
[3] abbreviates: liposome assay, read-out: DGK zeta LIPGLO IC50.
[4] abbreviates: Homo sapiens, whole blood, normalized to 3 μM reference compound as 100% activation, read-out: IFN-γ Whole Blood Normalized EC50.
[5] abbreviates: whole blood, normalized to 3 μM reference compound as 100% activation, read-out: IFN-γ Whole Blood Normalized EC50.
Where [6] appears, read: liposome (LIPGLO) assay, read-out: DGK alpha (liposome assay) IC50.
[7] abbreviates: liposome (LIPGLO) assay, read-out: DGK zeta (liposome assay) IC50.

Sequence of human DGKζ (Q13574 other isoform, or with tags, fused parts or gaps): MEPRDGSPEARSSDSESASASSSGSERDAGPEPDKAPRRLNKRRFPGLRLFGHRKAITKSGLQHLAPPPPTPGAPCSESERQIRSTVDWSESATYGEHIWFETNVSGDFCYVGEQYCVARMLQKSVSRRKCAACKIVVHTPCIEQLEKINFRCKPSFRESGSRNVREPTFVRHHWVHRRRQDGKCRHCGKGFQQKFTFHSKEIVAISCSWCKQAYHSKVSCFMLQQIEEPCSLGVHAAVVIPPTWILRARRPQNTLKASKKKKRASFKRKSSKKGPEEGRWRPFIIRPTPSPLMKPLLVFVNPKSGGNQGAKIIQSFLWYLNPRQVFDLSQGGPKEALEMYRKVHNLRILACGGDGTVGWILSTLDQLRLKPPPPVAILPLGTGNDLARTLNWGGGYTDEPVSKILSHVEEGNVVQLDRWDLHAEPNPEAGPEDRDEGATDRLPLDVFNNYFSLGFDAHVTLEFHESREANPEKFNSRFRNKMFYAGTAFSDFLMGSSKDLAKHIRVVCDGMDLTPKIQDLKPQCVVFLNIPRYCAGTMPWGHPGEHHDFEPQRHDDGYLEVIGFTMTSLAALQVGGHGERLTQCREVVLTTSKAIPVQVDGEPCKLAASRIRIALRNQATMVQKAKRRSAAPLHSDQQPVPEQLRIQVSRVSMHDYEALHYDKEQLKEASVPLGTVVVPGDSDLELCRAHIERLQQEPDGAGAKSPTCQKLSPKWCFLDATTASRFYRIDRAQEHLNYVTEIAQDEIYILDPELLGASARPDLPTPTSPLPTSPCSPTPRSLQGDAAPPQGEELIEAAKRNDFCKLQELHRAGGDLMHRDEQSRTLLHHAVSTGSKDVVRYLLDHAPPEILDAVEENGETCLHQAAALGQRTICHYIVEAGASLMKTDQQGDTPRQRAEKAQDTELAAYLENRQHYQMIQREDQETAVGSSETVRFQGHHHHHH

With `CC[C@@H]1CN(c2nc(=O)n(C)c3ccc(C#N)nc23)[C@@H](CC)CN1Cc1ccc2c(c1)OC(F)(F)O2` [Example 13, 4-((2S,5R)-4-((2,2-difluorobenzo[d][1,3]dioxol-5-yl)methyl)-2,5-diethylpiperazin-1-yl)-1-methyl-2-oxo-1,2-dihydropyrido[3,2-d]pyrimidine-6-carbonitrile], the IC50 on human DGKα (setting [2]) was 700 nM; at human DGKζ (setting [3]) it was 230 nM. Moreover, in experiment [1] (setting [4]), the EC50 was 2120 nM.

In the case of `C[C@@H]1CN(c2nc(=O)n(C)c3ccc(C#N)nc23)[C@@H](C)CN1C(c1ccc(F)cc1)c1nc(C2CC2)cs1` (single isomer, unassigned) [Example 159], the IC50 worked out at 94 nM on human DGKα (setting [2]) and 38 nM at human DGKζ (setting [3]). In addition, in experiment [1] (setting [5]), the 50% effective concentration (EC50) is 250 nM.

Turning to `C[C@@H]1CN(c2nc(=O)n(C)c3ccc(C#N)nc23)[C@@H](C)CN1C(c1ccc(OC(F)(F)F)cc1)c1cc(C2CC2)on1` (single isomer, unassigned) [Example 164], the half-inhibitory concentration (IC50) is 120 nM at human DGKα (setting [2]) and 340 nM on human DGKζ (setting [3]). For the same compound, in experiment [1] (setting [4]), the EC50 came out at 650 nM.

Take `CC(c1ccc(OC(C)(C)C#N)cc1)N1C[C@H](C)N(c2nc(=O)n(C)c3ccc(C#N)nc23)C[C@H]1C` (stereo partly drawn) [Example 376, 4-((2S,5R)-4-(1-(4-((2-cyanopropan-2-yl)oxy)phenyl)ethyl)-2,5-dimethylpiperazin-1-yl)-1-methyl-2-oxo-1,2-dihydropyrido[3,2-d]pyrimidine-6-carbonitrile]: the values for the IC50 on human DGKα (setting [6]) and on human DGKζ (setting [7]) were 30 nM and 97 nM, respectively. Also, the EC50 in experiment [1] (human whole blood, anti-CD3 plus anti-CD28 stimulation, 24 hours, read-out: IFN-γ Whole Blood EC50) was 58 nM.

As to `C[C@@H]1CN(c2nc(=O)n(C)c3ccc(C#N)nc23)[C@@H](C)CN1C(c1ccc(OC(F)(F)F)cc1)c1cc(C2CC2)on1` (single isomer, unassigned) [Example 165], the IC50 on human DGKα (setting [2]) worked out at 380 nM; on human DGKζ (setting [3]), 370 nM. Further, in experiment [1] (setting [5]), the EC50 is 630 nM.

As to `CC[C@@H]1CN(c2nc(=O)n(C)c3ccc(C#N)nc23)[C@@H](C)CN1C(C)c1ccc(C(F)(F)F)cc1F` (single isomer, unassigned) [Example 58], the IC50 was 270 nM at human DGKα (setting [2]) and 54 nM on human DGKζ (setting [3]). Also, the EC50 in experiment [1] (setting [5]) is 22 nM.

On to `CC[C@@H]1CN(c2nc(=O)n(C)c3ccc(C#N)nc23)[C@@H](C)CN1C(C)c1ccc(C#N)cc1` (single isomer, unassigned) [Example 60], for which the results for the IC50 on human DGKα (setting [2]) and on human DGKζ (setting [3]) were 30 nM and 28 nM, respectively. For the same compound, the EC50 in experiment [1] (setting [5]) was found to be 23 nM.

Take `CCC(c1ccc(OC(F)F)cc1)N1C[C@H](C)N(c2nc(=O)n(C)c3ccc(C#N)nc23)C[C@H]1CC` (single isomer, unassigned) [Example 78]: the results for the IC50 on human DGKα (setting [2]) and on human DGKζ (setting [3]) were 470 nM and 1130 nM, respectively. In experiment [1] (setting [4]), the EC50 is 75 nM.

Regarding `C[C@@H]1CN(c2nc(=O)n(C)c3ccc(C#N)nc23)[C@@H](C)CN1C(c1ccc(F)cc1)c1nc(C2CC2)cs1` (single isomer, unassigned) [Example 158], the IC50 at human DGKα (setting [2]) was 660 nM; at human DGKζ (setting [3]), 570 nM. Also, the EC50 in experiment [1] (setting [5]) stood at 1580 nM.

For the compound `CC[C@@H]1CN(c2nc(=O)n(C)c3ccc(C#N)nc23)[C@@H](C)CN1C(C)c1ccc(OC(C)C)cc1` (single isomer, unassigned) [Example 52], the IC50 came out at 230 nM on human DGKα (setting [2]) and 52 nM at human DGKζ (setting [3]). In addition, the EC50 in experiment [1] (setting [5]) was found to be 53 nM.

Regarding `CC[C@H]1CN(C(C)c2ccc(C3CC3)cc2)[C@H](CC)CN1c1nc(=O)n(C)c2ccc(C#N)nc12` (single isomer, unassigned) [Example 28], the IC50 is 1570 nM on human DGKα (setting [2]) and 2650 nM at human DGKζ (setting [3]). The half-maximal effective concentration (EC50) in experiment [1] (setting [5]) amounted to 2040 nM.

In the case of `CC(c1ccc(C2CC2)cc1)N1C[C@H](C)N(c2nc(=O)n(C)c3ccc(C#N)nc23)C[C@H]1C` (single isomer, unassigned) [Example 3], the IC50 was determined as 190 nM at human DGKα (setting [2]) and 110 nM on human DGKζ (setting [3]). For the same compound, the EC50 in experiment [1] (setting [5]) is 31 nM.

`CC[C@@H]1CN(c2nc(=O)n(C)c3ccc(C#N)nc23)[C@@H](C)CN1C(C)c1ccc(C2CC2)cc1F` (single isomer, unassigned) [Example 92]: the IC50 is 460 nM on human DGKα (setting [2]) and 120 nM on human DGKζ (setting [3]). Besides, the EC50 in experiment [1] (setting [5]) is 350 nM.

`CCC(c1ccc(OC(F)(F)F)cc1F)N1C[C@H](C)N(c2nc(=O)n(C)c3ccc(C#N)nc23)C[C@H]1C` (single isomer, unassigned) [Example 153]: the figures for the IC50 at human DGKα (setting [2]) and on human DGKζ (setting [3]) were 690 nM and 1980 nM, respectively. Moreover, the EC50 in experiment [1] (setting [5]) worked out at 2310 nM.

Take `CC[C@H]1CN(C(c2ccc(F)cc2)c2ccon2)[C@H](CC)CN1c1nc(=O)n(C)c2ccc(C#N)nc12` (single isomer, unassigned) [Example 34]: the results for the IC50 on human DGKα (setting [2]) and on human DGKζ (setting [3]) were 620 nM and 310 nM, respectively. Besides, the EC50 in experiment [1] (setting [5]) is 420 nM.

Regarding `CC[C@H]1CN(C(C)c2ccc(C3CC3)cc2F)[C@H](CC)CN1c1nc(=O)n(C)c2ccc(C#N)nc12` (single isomer, unassigned) [Example 41], the figures for the IC50 at human DGKα (setting [2]) and at human DGKζ (setting [3]) were 2270 nM and 1080 nM, respectively. Further, in experiment [1] (setting [5]), the EC50 was found to be 470 nM.

For `CC[C@H]1CN(C(C)c2ccc(OC(F)(F)F)cc2)[C@H](C)CN1c1nc(=O)n(C)c2ccc(C#N)nc12` (stereo partly drawn) [Example 123, 4-((2S,5R)-2-ethyl-5-methyl-4-(1-(4-(trifluoromethoxy)phenyl)ethyl)piperazin-1-yl)-1-methyl-2-oxo-1,2-dihydropyrido[3,2-d]pyrimidine-6-carbonitrile], the IC50 turned out to be 1380 nM on human DGKα (setting [2]) and 1330 nM at human DGKζ (setting [3]). The 50% effective concentration (EC50) in experiment [1] (setting [4]) worked out at 2570 nM.

As for `CCC(c1ccc(OC(F)(F)F)cc1)N1C[C@H](C)N(c2nc(=O)n(C)c3ccc(C#N)nc23)C[C@H]1C` (single isomer, unassigned) [Example 154], the 50% inhibitory concentration (IC50) at human DGKα (setting [2]) worked out at 16 nM; on human DGKζ (setting [3]) it was 370 nM. Further, the concentration for a half-maximal effect (EC50) in experiment [1] (setting [4]) came to 1430 nM.

As to `CC[C@H]1CN(C(C)c2ccc(OC(C)C)cc2)[C@H](CC)CN1c1nc(=O)n(C)c2ccc(C#N)nc12` (single isomer, unassigned) [Example 19], the IC50 worked out at 4050 nM at human DGKα (setting [2]) and 3100 nM at human DGKζ (setting [3]). In experiment [1] (setting [4]), the half-maximal effective concentration (EC50) was 2060 nM.

For the compound `C[C@@H]1CN(c2nc(=O)n(C)c3ccc(C#N)nc23)[C@@H](C)CN1C(c1ccc(Cl)cc1)c1ccc(Cl)cc1` [Example 373, 4-((2 S, 5R)-4-(bis(4-chlorophenyl)methyl)-2,5-dimethylpiperazin-1-yl)-1-methyl-2-oxo-1,2-dihydropyrido[3,2-d]pyrimidine-6-carbonitrile], the results for the IC50 at human DGKα (setting [6]) and on human DGKζ (setting [7]) were 860 nM and 2550 nM, respectively. Further, in experiment [1] (Homo sapiens, 24 h, human whole blood, anti-CD3 plus anti-CD28 stimulation, 24 hours, read-out: IFN-γ Whole Blood EC50), the EC50 is 170 nM.

Regarding `C[C@@H]1CN(c2nc(=O)n(C)c3ccc(C#N)nc23)[C@@H](C)CN1C(c1ccc(F)cc1)c1csc(C(F)(F)F)n1` (single isomer, unassigned) [Example 170], the results for the 50% inhibitory concentration (IC50) at human DGKα (setting [2]) and at human DGKζ (setting [3]) were 1610 nM and 330 nM, respectively. Moreover, the concentration giving a half-maximal response (EC50) in experiment [1] (setting [5]) came out at 96 nM.

Regarding `CC[C@@H]1CN(c2nc(=O)n(C)c3ccc(C#N)nc23)[C@@H](C)CN1Cc1ccc(OC(F)(F)F)cc1F` [Example 62, 4-((2S,5R)-5-ethyl-4-(2-fluoro-4-(trifluoromethoxy)benzyl)-2-methylpiperazin-1-yl)-1-methyl-2-oxo-1,2-dihydropyrido[3,2-d]pyrimidine-6-carbonitrile], the IC50 at human DGKα (setting [2]) amounted to 58 nM; on human DGKζ (setting [3]) it was 220 nM. Further, in experiment [1] (setting [4]), the EC50 turned out to be 200 nM.

As for `CC[C@@H]1CN(c2nc(=O)n(C)c3ccc(C#N)nc23)[C@@H](C)CN1C(C)c1ccc(OC)cc1` (single isomer, unassigned) [Example 57], the results for the IC50 at human DGKα (setting [2]) and on human DGKζ (setting [3]) were 960 nM and 930 nM, respectively. For the same compound, the EC50 in experiment [1] (setting [5]) stood at 1900 nM.

Regarding `CC[C@@H]1CN(c2nc(=O)n(C)c3ccc(C#N)nc23)[C@@H](CC)CN1Cc1ccc(OC(F)(F)F)cc1F` [Example 27, 4-((2S,5R)-2,5-diethyl-4-(2-fluoro-4-(trifluoromethoxy)benzyl)piperazin-1-yl)-1-methyl-2-oxo-1,2-dihydropyrido[3,2-d]pyrimidine-6-carbonitrile], the values for the IC50 on human DGKα (setting [2]) and at human DGKζ (setting [3]) were 2 nM and 230 nM, respectively. In addition, the EC50 in experiment [1] (setting [4]) was 620 nM.

Consider `CC[C@H]1CN(C(C)c2ccc(OCC3CC3)cc2F)[C@H](CC)CN1c1nc(=O)n(C)c2ccc(C#N)nc12` (single isomer, unassigned) [Example 32], for which the values for the half-inhibitory concentration (IC50) at human DGKα (setting [2]) and on human DGKζ (setting [3]) were 500 nM and 31 nM, respectively. Besides, in experiment [1] (setting [5]), the EC50 is 19 nM.

For the compound `C[C@@H]1CN(c2nc(=O)n(C)c3ccc(C#N)nc23)[C@@H](C)CN1Cc1cc(F)c(F)c(F)c1` [Example 130, 4-((2S,5R)-2,5-dimethyl-4-(3,4,5-trifluorobenzyl)piperazin-1-yl)-1-methyl-2-oxo-1,2-dihydropyrido[3,2-d]pyrimidine-6-carbonitrile], the IC50 at human DGKα (setting [2]) amounted to 12400 nM; on human DGKζ (setting [3]), 960 nM. Besides, the concentration giving a half-maximal response (EC50) in experiment [1] (setting [4]) was determined as 4070 nM.

Take `C[C@H]1CN(C(c2ccc(F)cc2)c2ccc(C(F)(F)F)cn2)[C@H](CO)CN1c1nc(=O)n(C)c2ccc(C#N)nc12` (single isomer, unassigned) [Example 181]: the IC50 on human DGKα (setting [2]) is 4920 nM; on human DGKζ (setting [3]) it was 12400 nM. Further, in experiment [1] (setting [5]), the 50% effective concentration (EC50) amounted to 730 nM.

Consider `COC[C@@H]1CN(c2nc(=O)n(C)c3ccc(C#N)nc23)[C@@H](C)CN1C(c1ccc(F)cc1)c1ccc(C(F)(F)F)cn1` (single isomer, unassigned) [Example 179], for which the figures for the IC50 on human DGKα (setting [2]) and on human DGKζ (setting [3]) were 81 nM and 22 nM, respectively. In addition, the EC50 in experiment [1] (setting [5]) worked out at 55 nM.
